Source: the supplement of paper PMC10307832

Assays:
Assay in all cases: relative viability (nuclei count vs DMSO), 5 days (fraction); higher = more cells survive
Tivantinib + Vorinostat = compound: O=C1NC(=O)[C@@H](c2cn3c4c(cccc24)CCC3)[C@@H]1c1c[nH]c2ccccc12 [Tivantinib] + O=C(CCCCCCC(=O)Nc1ccccc1)NO [Vorinostat] (partner 1 µM)
Summary of the method: (§1)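 A single step with final 0.05% Triton X-100, 1% formaldehyde and 1 ug/ml Hoechst fixed the cells and stained nuclei 5 days after treatment. Lung cancer cell lines in 1536-well plates had been treated by pin tool the day after seeding with one drug alone or a fixed anchor-drug dose plus five library-drug doses (not always all listed) in √10 steps, and nuclei were counted on 4× images. Relative viability is the ratio of nuclei in treated wells to nuclei in vehicle wells, taken as the median of duplicate plates.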

Crenolanib + Olaparib = compound: CC1(COc2ccc3c(c2)ncn3-c2ccc3cccc(N4CCC(N)CC4)c3n2)COC1 [Crenolanib] + O=C(c1cc(Cc2n[nH]c(=O)c3ccccc23)ccc1F)N1CCN(C(=O)C2CC2)CC1 [Olaparib] (partner 8 µM)
Summary of the method: as §1

Crenolanib + Pemetrexed = compound: CC1(COc2ccc3c(c2)ncn3-c2ccc3cccc(N4CCC(N)CC4)c3n2)COC1 [Crenolanib] + Nc1nc2[nH]cc(CCc3ccc(C(=O)N[C@@H](CCC(=O)O)C(=O)O)cc3)c2c(=O)[nH]1 [Pemetrexed] (partner 0.2 µM)
Summary of the method: as §1

Tivantinib + Pictilisib = compound: O=C1NC(=O)[C@@H](c2cn3c4c(cccc24)CCC3)[C@@H]1c1c[nH]c2ccccc12 [Tivantinib] + CS(=O)(=O)N1CCN(Cc2cc3nc(-c4cccc5[nH]ncc45)nc(N4CCOCC4)c3s2)CC1 [Pictilisib] (partner 1 µM)
Summary of the method: as §1

Cell Line	relative viability (Tivantinib + Vorinostat; first compound 0.01 µM)	relative viability (Tivantinib + Vorinostat; first compound 0.03162 µM)	relative viability (Tivantinib + Vorinostat; first compound 0.1 µM)	relative viability (Tivantinib + Vorinostat; first compound 0.3162 µM)	relative viability (Crenolanib + Olaparib; first compound 0.01 µM)	relative viability (Crenolanib + Olaparib; first compound 0.03162 µM)	relative viability (Crenolanib + Olaparib; first compound 0.1 µM)	relative viability (Crenolanib + Olaparib; first compound 0.3162 µM)	relative viability (Crenolanib + Olaparib; first compound 1 µM)	relative viability (Crenolanib + Pemetrexed; first compound 0.01 µM)	relative viability (Crenolanib + Pemetrexed; first compound 0.03162 µM)	relative viability (Crenolanib + Pemetrexed; first compound 0.1 µM)	relative viability (Crenolanib + Pemetrexed; first compound 0.3162 µM)	relative viability (Crenolanib + Pemetrexed; first compound 1 µM)	relative viability (Tivantinib + Pictilisib; first compound 0.01 µM)	relative viability (Tivantinib + Pictilisib; first compound 0.03162 µM)	relative viability (Tivantinib + Pictilisib; first compound 0.1 µM)	relative viability (Tivantinib + Pictilisib; first compound 0.3162 µM)
NCI-H358	0.704	0.567	0.658	0.233	0.641	0.594	0.529	0.678	0.603	0.176	0.169	0.176	0.178	0.188	0.406	0.284	0.418	0.294
NCI-H441	0.844	0.762	0.563	0.708	0.602	0.524	0.608	0.56	0.535	0.261	0.278	0.269	0.312	0.273	0.499	0.451	0.601	0.242
NCI-H460	0.665	0.67	0.71	0.404	0.445	0.366	0.405	0.438	0.415	0.063	0.067	0.075	0.0642	0.0669	0.331	0.274	0.335	0.33
NCI-H520	0.672	0.672	0.694	0.703	0.367	0.258	0.33	0.288	0.338	0.701	0.792	0.628	0.684	0.702	0.292	0.237	0.268	0.262
NCI-H596	0.687	0.589	0.636	0.531	0.731	0.806	0.68	0.64	0.681	0.462	0.481	0.47	0.513	0.507	0.427	0.39	0.379	0.334
NCI-H647	0.541	0.598	0.579	0.962	0.477	0.512	0.511	0.802	0.586	0.202	0.19	0.201	0.209	0.217	0.45	0.341	0.409	0.371
NCI-H650	0.45	0.356	0.443	0.4	0.4	0.379	0.343	0.339	0.325	1.03	1.01	0.93	0.932	0.918	0.835		0.817	0.8
